Measurements as given in ChEMBL document CHEMBL1201862, “PubChem BioAssay data set” (2004).
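A five-concentration, 48-hour dose response in 96-well plates underlies each endpoint, interpolated linearly between surrounding concentrations. The concentration for 50% growth inhibition is given as GI50.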 Active and inactive are the calls of the source. Cut-off read from the data, not from the text of the source: active = GI50 up to about 1.1 µM and inactive = higher.

Experiments:
Assay in all cases: growth of human tumour cells (NCI), 48 h
CCRF-CEM = test system: CCRF-CEM
LOX IMVI = test system: LOX IMVI
OVCAR-5 = test system: OVCAR-5
A549 = test system: A549
OVCAR-4 = test system: OVCAR-4
EKVX = test system: EKVX
MOLT-4 = test system: MOLT-4
HOP-92 = test system: HOP-92
SK-MEL-28 = test system: SK-MEL-28
OVCAR-3 = test system: OVCAR-3
ACHN = test system: ACHN
UACC-62 = test system: UACC-62
SR = test system: SR
SN12C = test system: SN12C
OVCAR-8 = test system: OVCAR-8
KM12 = test system: KM12
SW-620 = test system: SW-620

Measured: GI50

C#CC(C)(C)Oc1cc(O)c2c(=O)c3ccccc3n(C)c2c1
inactive: CCRF-CEM 45.2 µM | LOX IMVI 19.3 µM | OVCAR-5 > 100 µM | A549 > 100 µM | OVCAR-4 > 100 µM | EKVX > 100 µM | MOLT-4 > 100 µM | HOP-92 > 100 µM | SK-MEL-28 > 100 µM | OVCAR-3 > 100 µM | ACHN 86.1 µM | UACC-62 > 100 µM | SR 17.3 µM | SN12C > 100 µM | OVCAR-8 35.8 µM

COc1ccccc1NC(=O)NS(=O)(=O)c1ccccc1
inactive: LOX IMVI > 100 µM | OVCAR-5 > 100 µM | A549 > 100 µM | OVCAR-4 > 100 µM | EKVX 88.7 µM | KM12 > 100 µM | HOP-92 > 100 µM | SK-MEL-28 > 100 µM | ACHN 58.3 µM | SW-620 > 100 µM | SN12C > 100 µM | OVCAR-8 > 100 µM

O=C(c1ccccc1)c1nc2ccc(Cl)cc2c2c1Cc1ccccc1-2
inactive: LOX IMVI > 100 µM | OVCAR-5 > 100 µM | A549 > 100 µM | OVCAR-4 > 100 µM | EKVX > 100 µM | KM12 > 100 µM | MOLT-4 > 100 µM | SK-MEL-28 > 100 µM | OVCAR-3 > 100 µM | ACHN > 100 µM | SW-620 > 100 µM | UACC-62 > 100 µM | SR > 100 µM | SN12C > 100 µM | OVCAR-8 > 100 µM

O=C(Nc1ccccc1C(=O)NC(=O)c1ccccc1NC(=O)c1ccccc1)c1ccccc1
inactive: CCRF-CEM 3.91 µM | LOX IMVI 2.24 µM | OVCAR-5 3.6 µM | A549 7.53 µM | OVCAR-4 3.41 µM | EKVX 8.71 µM | KM12 1.58 µM | HOP-92 1.99 µM | SK-MEL-28 3.13 µM | OVCAR-3 3.29 µM | ACHN 17.9 µM | SW-620 4.84 µM | UACC-62 2.07 µM | SR 2.42 µM | SN12C 4.51 µM | OVCAR-8 5.04 µM

C=C1CC2OC(=O)C(=C)C2C(O)C2C(=C)CCC12 (configuration not stated)
inactive: CCRF-CEM 2.24 µM | OVCAR-5 12.3 µM | A549 14.4 µM | EKVX 6.98 µM | KM12 10.8 µM | MOLT-4 2.75 µM | HOP-92 2.06 µM | SK-MEL-28 7.28 µM | OVCAR-3 10.1 µM | ACHN 9.04 µM | SW-620 3.82 µM | UACC-62 3.48 µM | SR 3.21 µM | SN12C 5.73 µM | OVCAR-8 4.1 µM

CCOC(=O)C1C(c2ccc(Cl)cc2Cl)NC(c2ccc(C)cc2)C(C(=O)OC)S1(=O)=O (configuration not stated)
inactive: CCRF-CEM > 100 µM | LOX IMVI 81.5 µM | OVCAR-5 > 100 µM | A549 37.8 µM | OVCAR-4 > 100 µM | EKVX 85.9 µM | KM12 > 100 µM | MOLT-4 5.46 µM | HOP-92 12 µM | SK-MEL-28 > 100 µM | OVCAR-3 > 100 µM | ACHN 80.4 µM | SW-620 > 100 µM | UACC-62 53.1 µM | SR 69 µM | OVCAR-8 > 100 µM

COc1ccc2c(c1)[n+]([O-])c(/C(C)=N/NC(=O)c1ccccc1O)c(C)[n+]2[O-]
inactive: CCRF-CEM > 100 µM | LOX IMVI > 100 µM | OVCAR-5 > 100 µM | A549 > 100 µM | OVCAR-4 > 100 µM | EKVX > 100 µM | KM12 > 100 µM | MOLT-4 > 100 µM | HOP-92 > 100 µM | SK-MEL-28 > 100 µM | OVCAR-3 > 100 µM | ACHN > 100 µM | SW-620 > 100 µM | UACC-62 > 100 µM | SN12C > 100 µM | OVCAR-8 97.9 µM

C=C1C(=O)OC2C/C(C)=C/CC/C(C)=C/CCC3(COC(C)=O)OC3CC12 (configuration not stated)
inactive: CCRF-CEM 2.7 µM | LOX IMVI 9.46 µM | OVCAR-5 16.5 µM | A549 16.4 µM | OVCAR-4 26.7 µM | EKVX 19.6 µM | KM12 13.7 µM | MOLT-4 4.42 µM | SK-MEL-28 11.1 µM | OVCAR-3 6.19 µM | ACHN 14.1 µM | SW-620 2.04 µM | UACC-62 11.8 µM | SN12C 15.6 µM | OVCAR-8 6.52 µM

COc1cc(Nc2cnc3cc(C(F)(F)F)ccc3n2)cc(OC)c1OC
inactive: CCRF-CEM > 100 µM | LOX IMVI > 100 µM | OVCAR-5 > 100 µM | A549 > 100 µM | EKVX > 100 µM | MOLT-4 > 100 µM | HOP-92 > 100 µM | SK-MEL-28 > 100 µM | OVCAR-3 > 100 µM | ACHN > 100 µM | SW-620 > 100 µM | UACC-62 > 100 µM | SR > 100 µM | SN12C > 100 µM | OVCAR-8 > 100 µM

O=[N+]([O-])c1ccc(N=P(c2ccccc2)(c2ccccc2)c2ccccc2)n2nnnc12
inactive: CCRF-CEM 68.9 µM | LOX IMVI > 100 µM | OVCAR-5 > 100 µM | A549 40.6 µM | OVCAR-4 31.8 µM | EKVX 58.7 µM | KM12 66.4 µM | MOLT-4 77.8 µM | HOP-92 22.2 µM | SK-MEL-28 > 100 µM | OVCAR-3 34.5 µM | ACHN 43.5 µM | SW-620 > 100 µM | UACC-62 37.3 µM | SN12C 82.4 µM | OVCAR-8 31 µM

COc1ccc2nc3cc(Cl)ccc3c(NCCC[N+](C)(C)CCCCCCCCCCCCCCCC[N+](C)(C)CCCNc3c4ccc(Cl)cc4nc4ccc(OC)cc34)c2c1
inactive: CCRF-CEM 1.66 µM | LOX IMVI 1.96 µM | OVCAR-5 2.92 µM | A549 3.12 µM | OVCAR-4 2.44 µM | EKVX 3.21 µM | KM12 1.64 µM | MOLT-4 1.43 µM | SK-MEL-28 2.08 µM | OVCAR-3 4.81 µM | ACHN 6.22 µM | SW-620 1.96 µM | UACC-62 2.69 µM | SN12C 3.22 µM | OVCAR-8 3.15 µM

CC(C)N(C(=O)C12C3C4C1C1C2C3C41C(=O)C(C)(C)C)C(C)C (configuration not stated)
inactive: CCRF-CEM 16.1 µM | LOX IMVI > 100 µM | OVCAR-5 > 100 µM | A549 > 100 µM | OVCAR-4 > 100 µM | EKVX > 100 µM | KM12 > 100 µM | MOLT-4 26.7 µM | SK-MEL-28 > 100 µM | OVCAR-3 > 100 µM | ACHN > 100 µM | SW-620 47.4 µM | UACC-62 > 100 µM | SN12C > 100 µM | OVCAR-8 > 100 µM

COC(=O)C(=C/c1ccc(OC)cc1)/C(C(=O)O)=C(/C)c1ccccc1
inactive: CCRF-CEM > 100 µM | LOX IMVI > 100 µM | OVCAR-5 > 100 µM | A549 > 100 µM | OVCAR-4 > 100 µM | EKVX > 100 µM | KM12 > 100 µM | MOLT-4 > 100 µM | HOP-92 > 100 µM | OVCAR-3 > 100 µM | ACHN > 100 µM | SW-620 > 100 µM | UACC-62 > 100 µM | SR > 100 µM | SN12C > 100 µM | OVCAR-8 > 100 µM
